What all share (assay): NCI tumour cell line growth inhibition, 48 h
The subject of assay [1] is PC-3 prostate.
Assay [2] deals with UACC-257 melanoma.
Assay [3] concerns K-562 leukemia.
Assay [4] has as its system CCRF-CEM leukemia.
In assay [5] the test system is SR leukemia.
Assay [6] has as its system SF-268 CNS.
For assay [7], the system named is MOLT-4 leukemia.
For assay [8], the system named is SK-MEL-28 melanoma.
Assay [9] deals with SF-295 CNS.
The test system of assay [10] is HT29 colon.

Values joined by “and” are separate entries in the source; they are usually repeats but may differ in a detail not shown here. Equal values may be shown once.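 Cells were grown in 96-well plates and exposed to each compound for 48 hours at five concentrations; endpoints were interpolated linearly between bracketing concentrations, or set to the highest concentration if not reached. The concentration for 50% growth inhibition is given as GI50. Definition used: TGI = concentration required for complete inhibition of growth.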

As to `COc1cc2c(cc1OC)C(CCc1ccc(Cl)cc1)N(C)CC2` (configuration not stated), the GI50 in [1] is 20.1 µM; in [2], 27.2 µM; in assay [3], 24.7 µM; in assay [4], 29100 nM; in [5] it was 28.4 µM; in assay [6], 35 µM. Besides, the GI50 in [7] was 35.7 µM; in assay [8], 20.1 µM; in assay [9] it was 9320 nM; in assay [10], 14.2 µM. The TGI in [1] was greater than 100 µM; in [2], 65.9 µM; in assay [3], 66.1 µM; in [4] it was greater than 100 µM; in assay [5] it was 63.4 µM; in assay [6], greater than 100 µM. The TGI came out at 94.9 µM in assay [7], 46.9 µM in assay [8], 27 µM in [9] and 86 µM in assay [10].
For `Nc1ccc2c(c1)C(=O)c1ccc(F)cc1-2`, the TGI in assay [1], in assay [2], in assay [3], in assay [4], in [5] and in assay [6] was greater than 100 µM throughout. In addition, the TGI in assay [7], in assay [8], in [9] and in assay [10] was greater than 100 µM throughout.
As for `O=C1NC(=NCc2cccs2)SC1Cc1ccc2ncccc2c1` (configuration not stated), the GI50 is 15.6 µM in [1]; 15.5 µM in assay [2]; 17.3 µM in assay [3]; 11700 nM in assay [4]; 8.86 µM in [5]; greater than 23 µM in assay [6]. In addition, the GI50 is 14.5 µM in assay [7], greater than 19.9 µM in assay [8], 11600 nM in [9] and 11.7 µM in assay [10]. The TGI in assay [1], in assay [2], in assay [3], in assay [4], in assay [5] and in assay [6] was greater than 25 µM throughout. Moreover, the TGI in assay [7], in assay [8], in [9] and in [10] was greater than 25 µM throughout.
As for `O=C(CCCn1c2c(sc3ncccc32)c(=O)n2nnc(-c3ccccc3)c12)NCCc1cnc[nH]1`, the GI50 in assay [1] was 10.9 µM; in assay [2], 18.3 µM; in assay [3], 0.31 µM; in assay [4] it was 222 nM; in [5], 2.52 µM; in assay [6], 11.7 µM. In addition, the GI50 was 2.22 µM in assay [7], 17 µM in assay [8], 1750 nM in assay [9] and 3.89 µM in assay [10]. The TGI in [1] is greater than 100 µM; in assay [2], 35.6 µM; in assay [3] it was 15.6 µM; in assay [4], 4.48 µM; in assay [5], 6.14 µM; in assay [6], 29.1 µM. The TGI worked out at 24.2 µM in [7], 35 µM in [8], 16.3 µM in [9] and 54.9 µM in assay [10].
As for `COC(=O)[C@]12CC[C@@H](C)[C@H](C)[C@@H]1C1=CC[C@@H]3[C@@]4(C)C[C@@H](OC(=O)c5ccco5)[C@H](O)[C@@](C)(CO)[C@@H]4[C@H](O)C[C@@]3(C)[C@]1(C)CC2`, the GI50 was 2.6 µM in assay [1]; 2.87 µM in assay [2]; 2.35 µM in assay [3]; 2410 nM in [4]; 1.99 µM in [5]; 3.26 µM in assay [6]. Further, the GI50 in assay [7] is 2.04 µM; in [8], 2.17 µM; in assay [9], 1840 nM; in [10], 1.8 µM. For the same compound, the TGI turned out to be 6.73 µM in assay [1]; 7.55 µM in assay [2]; 5.42 µM in assay [3]; 5.77 µM in [4]; 4.68 µM in [5]; 14.2 µM in assay [6]. Moreover, the TGI in assay [7] was 4.44 µM; in [8], 4.71 µM; in assay [9], 3.87 µM; in [10] it was 3.41 µM.
For `O=C1Cc2cc(CCn3ccnc3)c(Cl)cc2N1`, the GI50 was 35.6 µM in assay [1]; 5.65 µM in [2]; 8.26 µM in assay [3]; 3370 nM in assay [4]; 9.24 µM in assay [5]; 11.2 µM in assay [6]. The GI50 was 56.7 µM in [7], 29.7 µM in [8], 7870 nM in assay [9] and greater than 100 µM in assay [10]. Moreover, the TGI in assay [1], in assay [2], in [3], in assay [4], in assay [5] and in assay [6] was greater than 100 µM in each case. Further, the TGI in [7], in [8], in assay [9] and in assay [10] was greater than 100 µM throughout.
Consider `Cc1cccc2c1Oc1cc(Cl)ccc1C2NC(=O)CCN1CCCCC1` (configuration not stated), for which the TGI in [1] amounted to 30.5 µM; in assay [2], 30.5 µM; in assay [3] it was 32 µM; in [4], 32.4 µM; in assay [5], 35 µM; in assay [6], 83.2 µM. For the same compound, the TGI in [7] came out at 34.3 µM; in assay [8], 29.2 µM; in assay [9], 33.1 µM; in [10], 27.1 µM.
On to `COC1=C(OC)C(=O)C(/C=C(\C)C(=O)O)=C(C)C1=O`, for which the GI50 in assay [1] is greater than 100 µM; in [2] it was greater than 100 µM; in [3], greater than 100 µM; in assay [4] it was 67000 nM; in [5], greater than 100 µM; in assay [6] it was greater than 100 µM. Also, the GI50 in assay [7] was greater than 100 µM; in assay [8], greater than 100 µM; in [9], greater than 100000 nM; in assay [10], greater than 100 µM. Also, the TGI in [1], in assay [2], in assay [3], in assay [4], in assay [5] and in [6] was greater than 100 µM each time. For the same compound, the TGI in assay [7], in assay [8], in [9] and in assay [10] was greater than 100 µM in each case.
As for `CCOc1ccc(Cc2nccc3cc(OCC)c(OCC)cc23)cc1OCC`, the GI50 in assay [1] is 4.41 µM; in [2], 3.34 µM; in assay [3], 3.54 µM; in [4], 8450 nM; in [5], 12.6 µM; in [6] it was 11.3 µM. For the same compound, the GI50 is 5.83 µM in assay [7], 14.8 µM in assay [8], 688 nM in assay [9] and 0.863 µM in assay [10]. Moreover, the TGI in [1] amounted to 33.4 µM; in assay [2], 14.6 µM; in assay [3], 49.9 µM; in [4] it was 65.1 µM; in [5], 56.2 µM; in assay [6], 36.7 µM. Besides, the TGI in assay [7] worked out at 34.2 µM; in assay [8], 28.9 µM; in [9] it was 15.8 µM; in [10] it was 12.6 µM.
Consider `c1cncc(CNc2ccccc2-c2nnc(Nc3ccc4c(c3)OCO4)o2)c1`, for which the GI50 in assay [1] is 0.0898 µM; in assay [2], 0.432 µM; in [3], 0.0474 µM; in assay [4], 80.1 nM; in [5] it was 0.0361 µM; in assay [6] it was 0.407 µM. Also, the GI50 in assay [7] was 0.194 µM; in assay [8] it was 0.0654 µM; in [9], 52.8 nM; in assay [10] it was 0.037 µM. The TGI is greater than 76.9 µM in assay [1]; 60.4 µM in assay [2]; greater than 100 µM in [3]; greater than 100 µM in assay [4]; greater than 100 µM in assay [5]; greater than 100 µM in assay [6]. Moreover, the TGI was greater than 100 µM in [7], greater than 100 µM in assay [8], greater than 100 µM in [9] and 1.27 µM in assay [10].
With `CC(=O)Nc1ccc2nncnc2c1`, the TGI in assay [1], in assay [2], in assay [3], in [4], in assay [5] and in assay [6] was greater than 100 µM in each case. Further, the TGI in [7], in [8], in assay [9] and in [10] was greater than 100 µM throughout.
Turning to `O=C1NC(=NCC(CO)c2ccccc2)S/C1=C\c1ccc2ncccc2c1` (configuration not stated), the GI50 in assay [1] was greater than 25 µM; in assay [2], greater than 25 µM; in assay [3], 10.6 µM; in [4], 19500 nM; in assay [5] it was 4.49 µM; in [6] it was greater than 16.9 µM. Moreover, the GI50 in [7] was greater than 25 µM; in [8], greater than 25 µM; in assay [9] it was greater than 25000 nM; in assay [10] it was 19.7 µM. The TGI in [1] is greater than 25 µM; in [2], greater than 25 µM; in assay [3], greater than 25 µM; in assay [4], greater than 25 µM; in assay [5], greater than 22.7 µM; in assay [6] it was greater than 25 µM. For the same compound, the TGI in [7], in [8], in assay [9] and in assay [10] was greater than 25 µM in each case.
Turning to `CC1=C(N2CC2)C(=O)C(CO)=C(N2CC2)C1=O`, the GI50 is 0.0159 µM and < 0.0213 µM in assay [1]; 0.0761 µM in [2]; 0.612 nM in assay [4]; 0.00666 µM in assay [6]; 32.9 nM in assay [9]. Moreover, the TGI in assay [1] was 0.0791 µM; in assay [2], 0.527 µM and 2.41 µM; in assay [3], 1.07 µM; in [5] it was greater than 49 µM; in assay [7], 5.88 µM; in assay [8], 0.228 µM. Besides, the TGI was 1.06 µM in assay [9]; 0.148 µM and 0.435 µM in assay [10].
Regarding `CCCNc1nc(N(C)O)nc(N(C)O)n1`, the GI50 in assay [1] was 6.66 µM; in [2] it was 4.13 µM; in assay [3] it was 2.24 µM; in assay [4] it was 432 nM; in assay [5], 0.149 µM; in assay [6] it was 1.39 µM. Besides, the GI50 was 0.194 µM in [7], 2.64 µM in assay [8], 2360 nM in assay [9] and 4.53 µM in assay [10]. Moreover, the TGI in [1] is greater than 100 µM; in assay [2], greater than 46.2 µM; in assay [3] it was greater than 100 µM; in [4], 5.46 µM; in assay [5], greater than 30.1 µM; in [6], greater than 56.6 µM. The TGI is greater than 28 µM in [7], greater than 91 µM in [8], greater than 56.2 µM in assay [9] and greater than 100 µM in assay [10].
As to `OC(c1cc(C(O)(C(F)(F)F)C(F)(F)F)ncn1)(C(F)(F)F)C(F)(F)F`, the TGI in [1], in [2], in assay [3], in assay [4], in [5] and in [6] was greater than 10 µM throughout. Also, the TGI in [7], in [8], in assay [9] and in assay [10] was greater than 10 µM in each case.
As for `C=C1CC[C@@H]2C(C)(C)[C@@H](O)CC[C@@]2(C)[C@@H]1COc1ccc2ccc(=O)oc2c1`, the GI50 in assay [1] is 5.71 µM; in assay [2], 14.1 µM; in assay [3] it was 6.43 µM; in assay [5], 19.4 µM; in [6], 12.2 µM; in [7] it was 7.22 µM. Besides, the GI50 is 15.1 µM in [8], 10500 nM in assay [9] and 8.61 µM in assay [10]. For the same compound, the TGI in [1] was 21.8 µM; in [2] it was 32.1 µM; in assay [3] it was greater than 100 µM; in assay [4], 68.3 µM; in assay [5], 83.9 µM; in assay [6] it was 33.1 µM. In addition, the TGI in assay [7] came to 35.6 µM; in assay [8], 30.1 µM; in assay [9] it was 22.9 µM; in assay [10], 32.6 µM.
With `Nc1nc(N)c2cc(CNc3ccc(Cl)c(Cl)c3)ccc2n1`, the GI50 in assay [1] is 0.412 µM; in assay [2], 0.891 µM; in [3] it was 0.0588 µM; in assay [4], 395 nM; in assay [5], 0.445 µM; in [6] it was 0.544 µM. Besides, the GI50 is 0.485 µM in assay [7], 1.51 µM in assay [8], 419 nM in assay [9] and 0.287 µM in assay [10]. Also, the TGI in assay [1] turned out to be 1.89 µM; in assay [2] it was 2.24 µM; in [3], 1.45 µM; in assay [4], 1.88 µM; in [5], 1.93 µM; in assay [6], 1.85 µM. Moreover, the TGI came out at 2.02 µM in assay [7], 2.84 µM in [8], 1.69 µM in [9] and 1.65 µM in assay [10].

The values are drawn from PubChem BioAssay (NCI).
